Test results reported in US20110280940A1, “Di-Vanilloyl And Tri-Vanilloyl Derivatives For Use In Anti-Cancer Therapy” (priority 2008, published 2011).

Key:
CDK2/cyclin A = molecular target: T1, CDK2/cyclin A (Homo sapiens, UniProt P24941); test: Kinase activity assay, CDK2A; type: biochemical; settings: 10 μM, 1% DMSO, 15 μM ATP; residual activity
T1 construct: made in house
Experimental: Buffer A: 10 mM MgCl2, 1 mM EGTA, 1 mM DTT, 25 mM Tris-HCl pH 7.5, 50 μg heparin/ml. Buffer C: 60 mM β-glycerophosphate, 15 mM p-nitrophenylphosphate, 25 mM Mops (pH 7.2), 5 mM EGTA, 15 mM MgCl2, 1 mM DTT, 1 mM sodium vanadate, 1 mM phenyl phosphate.
Kinase activities were assayed in Buffer A or C, at 30° C., at a final ATP concentration of 15 μM. Blank values were subtracted and activities expressed in % of the maximal activity, i.e. in the absence of inhibitors. Controls were performed with appropriate dilutions of DMSO.
CDK1/cyclin B (M phase starfish oocytes, native), CDK2/cyclin A, CDK2/cyclin E, CDK5/p25 and CDK7/cyclin H (human, recombinant) were prepared as previously described (Leclerc et al., 2001, J. Biol. Chem. 2001, 276, 251-260; Bach et al., 2005, J Biol Chem 280: 31208-31219). Their kinase activity was assayed in buffer C, with 1 mg histone H1/ml, in the presence of 15 μM [gamma-^33P] ATP (3,000 Ci/mmol; 10 mCi/ml) in a final volume of 30 μl. After 30 min incubation at 30° C., 25 μl aliquots of supernatant were spotted onto 2.5×3 cm pieces of Whatman P81 phosphocellulose paper, and, 20 sec later, the filters were washed five times (for at least 5 min each time) in a solution of 10 ml phosphoric acid/liter of water. The wet filters were counted in the presence of 1 ml ACS (Amersham) scintillation fluid.

[1] = tested on: PC-3 prostate cancer cells; test: MTT colorimetric assay, overall cell growth, PC-3; type: cell-based, human; settings: Homo sapiens, 72 hours of incubation, read-out: In Vitro IC50 Growth Inhibitory Values, PC-3
Summary of the method: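 Growth is measured as remaining living cells relative to untreated controls after 72 h at 37 °C with compound at 10^-8 to 10^-4 M. Readout is MTT formazan absorbance at 570 nm.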

IC50 [1] [mM]	SMILES	% ENZYMATIC ACTIVITY, CDK2A (CDK2/cyclin A) [%]
	COc1cc(C(=O)OCCOC(=O)c2ccc(O)c(OC)c2)ccc1O [DLT1, Ethane-1,2-diyl bis-(4-hydroxy-3-methoxybenzoate)]	91
> 1	COc1cc(C(=O)O)ccc1O [vanillic acid, reference compound]	
